Reference: patent publication US20240254179A1, “Targeting Nuclear Speckles and DNA Speckle Association” (THE TRUSTEES OF THE UNIVERSITY OF PENNSYLVANIA, priority 2023, published 2024)

Tests used:
[1] = tested on: HeLa cells; assay type: cell-based
[2] = tested on: patient-derived mouse xenograft tumors; assay: Speckle signature versus PT2399 sensitivity of patient-derived mouse xenograft ccRCC tumors; assay type: in vivo
Description: Methods for determining speckle signature and TCGA survival analysis. Four-hundred and forty-six protein genes annotated as “Enhanced”, “Supported”, or “Approved” for subcellular localization within nuclear speckles were identified in The Human Protein Atlas and their upper-quartile normalized RNA expression was extracted from the 30 PanCan TCGA projects that had greater than 50 samples. Principal Component Analysis was then performed on these 446 speckle protein genes. In doing so, each speckle protein gene was assigned a weight (called rotation in the analysis) that was used in the analysis to separate tumor sample along the first Principal Component (PC1). The absolute value of a speckle protein gene PC1 weight thus estimates the contribution of each speckle protein gene to patient variation and the PC1 weight sign, positive or negative, reflects genes that have opposite expression patterns to one another. To compare speckle protein gene expression contributions to patient variation between cancer types, the pairwise Pearson's correlation coefficients of the speckle protein PC1 weights were used. […] With collected ccRCC samples and published drug response studies, speckle scores were calculated using the above formula. […] Then differences in drug responses were calculated using a Fisher's exact test (FIG. 53) or Kaplan Meier statistics (FIG. 54).

[3] = tested on: ccRCC; assay: ccRCC clinical trial, overall survival by speckle signature, nivolumab versus everolimus; assay type: in vivo, human; conditions: nivolumab arm versus everolimus arm
Description: Without wishing to be bound by theory, it is envisioned that having both RNA- and imaging-based methods for measuring speckle phenotypes will assist in the development of cancer- and patient-specific treatment strategies. As a proof-of-concept for a potential use of nuclear speckle phenotyping, a series of studies was undertaken in which speckle signature was correlated with tumor/patient drug response in available data from a human clinical trial and patient-derived mouse xenograft studies.
Thus, contrasting with HIF-2a inhibition, PD1 inhibition may have a greater impact in individuals with Signature II tumors.
Methods for determining speckle signature and TCGA survival analysis. Four-hundred and forty-six protein genes annotated as “Enhanced”, “Supported”, or “Approved” for subcellular localization within nuclear speckles were identified in The Human Protein Atlas and their upper-quartile normalized RNA expression was extracted from the 30 PanCan TCGA projects that had greater than 50 samples. Principal Component Analysis was then performed on these 446 speckle protein genes. In doing so, each speckle protein gene was assigned a weight (called rotation in the analysis) that was used in the analysis to separate tumor sample along the first Principal Component (PC1). The absolute value of a speckle protein gene PC1 weight thus estimates the contribution of each speckle protein gene to patient variation and the PC1 weight sign, positive or negative, reflects genes that have opposite expression patterns to one another. To compare speckle protein gene expression contributions to patient variation between cancer types, the pairwise Pearson's correlation coefficients of the speckle protein PC1 weights were used. In order to obtain a set of speckle protein genes that consistently contributed to patient variation in many cancer types, the rotation signs were flipped so that the speckle protein gene, SON, was always assigned a negative weight. […] Speckle score was then used to separate samples into groups for Kaplan Meier and gene expression analysis between the two groups. With collected ccRCC samples and published drug response studies, speckle scores were calculated using the above formula. In drug-response data (related to FIG. 52), samples with positive speckle scores were considered speckle Signature I and samples with negative speckle scores were considered speckle Signature II. Then differences in drug responses were calculated using a Fisher's exact test (FIG. 53) or Kaplan Meier statistics (FIG. 54).

Compound | speckle association of the CCND1 gene locus [1] | fraction of Signature II tumors sensitive to PT2399 ([2]; xenograft tumors with negative speckle score (Signature II)) | fraction of Signature I tumors sensitive to PT2399 ([2]; xenograft tumors with positive speckle score (Signature I)) | overall survival, Signature I patients [3] | overall survival probability, Signature II patients [3]
[Cl-].[Cl-].[Co+2] [CoCl2] | increased speckle association of the CCND1 gene locus | – | – | – | –
N#Cc1cc(F)cc(Oc2ccc(S(=O)(=O)C(F)F)c3c2CC(F)(F)[C@H]3O)c1 [PT2399] | – | ~30% | ~75% | – | –
CO[C@H]1C[C@@H]2CC[C@@H](C)[C@@](O)(O2)C(=O)C(=O)N2CCCC[C@H]2C(=O)O[C@H]([C@H](C)C[C@@H]2CC[C@@H](OCCO)[C@H](OC)C2)CC(=O)[C@H](C)/C=C(\C)[C@@H](O)[C@@H](OC)C(=O)[C@H](C)C[C@H](C)/C=C/C=C/C=C/1C [everolimus] | – | – | – | did not differ in overall survival between the two treatment groups | higher overall survival probability when treated with nivolumab compared to everolimus
nivolumab | – | – | – | did not differ in overall survival between the two treatment groups | higher overall survival probability when treated with nivolumab compared to everolimus
